Measured values taken from paper PMC11234460, “In Silico Discovery of Stapled Peptide Inhibitor Targeting the Nur77‐PPARγ Interaction and Its Anti‐Breast‐Cancer Efficacy” (Advanced Science, 2024).
Where a SMILES comes first, the peptide text is derived from it. Bridges are numbered along the chain shown (N, C = ends). [ ]: non-standard residue; d: D form. S5 = C=CCCC[C@](C)(N)C(=O)O

System: MCF7 cells
Assay: Long-chain fatty acid uptake assay (BODIPY FL C16)
Assay type: cell-based, human
Settings: 24 h, BODIPY FL C16 1 h
Method: 5×10^4 MCF7 cells were seeded in confocal dishes and cultured overnight at 37 °C and 5% CO2. The cells were then incubated with a basic DMEM medium containing various concentrations of peptides (1/2/5/10/20 × 10^−6 M for flow cytometry and 10 × 10^−6 M for immunofluorescence) for 24 h. Afterward, 1 µL BODIPY FL C16 (1 × 10^−6 M, Thermo Fisher, D3821) was added to the confocal dishes and incubated with the cells for 1 h. Following incubation, the cell nuclei were stained with Hoechst for 8 min. Uptake of FA was monitored using flow cytometry (CytoFLEX, Beckman Coulter, USA) and DeltaVision OMX (GE, USA).

SMILES: C[C@@H](O)[C@@H]1NC(=O)[C@H](CCCNC(=N)N)NC(=O)[C@H](CCCNC(=N)N)NC(=O)[C@@](C)(NC(=O)[C@H](Cc2ccccc2)NC(=O)CNC(=O)[C@H](CCCCN)NC(=O)[C@H](CS)NC(=O)CNC(=O)[C@H](CCC(=O)O)NC(=O)[C@@H](N)CS)CCCC=CCCC[C@@](C)(C(=O)N[C@@H](CCCNC(=N)N)C(=O)N[C@@H](Cc2ccc(O)cc2)C(=O)N[C@@H](Cc2ccc(O)cc2)C(=O)NCC(=O)N[C@@H](CCCNC(=N)N)C(=O)N[C@@H](CCCCN)C(=O)N[C@@H](CCCCN)C(=O)N[C@@H](CCCNC(=N)N)C(=O)N[C@@H](CCCNC(=N)N)C(=O)N[C@@H](CCC(N)=O)C(=O)N[C@@H](CCCNC(=N)N)C(=O)N[C@@H](CCCNC(=N)N)C(=O)N[C@@H](CCCNC(=N)N)C(N)=O)NC1=O [ST-CY14] (H-CEGCKGF[S5]RRT[S5]RYYGRKKRRQRRR-NH2; staple 8-12)
- FA uptake (flow cytometry) (MCF7, 1-20 × 10^−6 M): dose‐dependent decrease in FA levels
- FA uptake (immunofluorescence) (MCF7, 1 × 10^−5 M): inhibited FA uptake
